Experiment: LC-MS quantification of conversion of protodrug in presence of Compound 111 in rat plasma-EDTA
Conditions: FIG. 2, 37° C., Compound 111 100 μg/mL, protodrug 250 ng/mL
Method: Liquid chromatography-mass spectrometry (LC-MS) was used to quantify the conversion of Compound B protodrug to MMAE and Compound F to exatecan in the presence of Compound 111. Compound 111 (100 μg/mL) was added to rat plasma-EDTA and incubated at 37° C. The protodrugs, Compound B and Compound F, were added to the plasma with the final concentration of 250 ng/mL. At each time point, triplicate aliquots were transferred to a plate with various pH extraction conditions and precipitated with acetonitrile for Compound B/MMAE or methanol for Compound F/exatecan. LC-MS/MS analyzed the extracted samples with the instrument methods previously established for each analyte. The conversion percentage was calculated based on the initial concentration of protodrugs and the formation of exatecan and MMAE in mole/mL.

For `CC[C@H](C)[C@@H]([C@@H](CC(=O)N1CCC[C@H]1[C@H](OC)[C@@H](C)C(=O)N[C@H](C)[C@@H](O)c1ccccc1)OC)N(C)C(=O)[C@@H](NC(=O)[C@H](C(C)C)N(C)C(=O)O[C@H]1/C=C/CC[C@@](C)(C(=O)N[C@@H](CC(=O)O)C(=O)O)CC1)C(C)C` [Compound B], the “conversion to MMAE after reaction with Compound 111” value was “rapidly converted”.

In the case of `CC[C@@]1(O)C(=O)OCc2c1cc1n(c2=O)Cc2c-1nc1cc(F)c(C)c3c1c2[C@@H](NC(=O)O[C@H]1/C=C/CC[C@@](C)(C(=O)NCCOCCOCCOCCN(CCOCCOCCOCCC(=O)O)CCOCCOCCOCCC(=O)O)CC1)CC3` [Compound F], the “conversion to exatecan after reaction with Compound 111” value was “rapidly converted”.

Experiment: LCMS analysis of drug release by tetrazines (TCO-MMAE Compound B)
Conditions: tetrazine 20 μM, Compound B 10 μM, PBS
Method: A solution of each tetrazine (20 μM final concentration) in PBS is mixed with TCO-MMAE Compound B (10 μM final concentration). The solution is mixed thoroughly and an aliquot removed at the appropriate time for analysis by LCMS.

Point of comparison: `Cc1nnc(-c2ccc(CN)c(C(F)(F)F)c2)nn1`, “% Compound B consumed (1 h)” value 100%. Against it:
- Cc1nnc(-c2ncccn2)nn1 — the same, 100%
- Cc1nnc(-c2cn(C)cn2)nn1 — lower, 74%
- Cc1nnc(-c2cocn2)nn1 — lower, 42%
- Cc1nnc(-c2ccc(C(F)(F)F)c(CN)c2)nn1 — the same, 100%
- Cc1nnc(-c2ccccn2)nn1 — the same, 100%
- Cc1nnc(-n2cccn2)nn1 — lower, 81%
